Source: PMC10341573, “Design, Synthesis, and Biological Evaluation of Novel Quinazolin-4(3H)-One-Based Histone Deacetylase 6 (HDAC6) Inhibitors for Anticancer Activity” (International Journal of Molecular Sciences, 2023)
Like-named read-outs stand apart in the source and are kept apart here.

Columns and labels:
[1] = target: T1, HDAC6 (Homo sapiens, UniProt Q9UBN7); test: HDAC enzyme activity assay (fluorogenic, Boc-Lys(acetyl)-AMC), HDAC6; format: biochemical; settings: class IIb HDAC6; mean ± SD, triplicate
T1 construct: Full-length recombinant HDAC6 was purchased from BPS Bioscience; purchased BPS Bioscience
T1 sequence (Q9UBN7 1-1215): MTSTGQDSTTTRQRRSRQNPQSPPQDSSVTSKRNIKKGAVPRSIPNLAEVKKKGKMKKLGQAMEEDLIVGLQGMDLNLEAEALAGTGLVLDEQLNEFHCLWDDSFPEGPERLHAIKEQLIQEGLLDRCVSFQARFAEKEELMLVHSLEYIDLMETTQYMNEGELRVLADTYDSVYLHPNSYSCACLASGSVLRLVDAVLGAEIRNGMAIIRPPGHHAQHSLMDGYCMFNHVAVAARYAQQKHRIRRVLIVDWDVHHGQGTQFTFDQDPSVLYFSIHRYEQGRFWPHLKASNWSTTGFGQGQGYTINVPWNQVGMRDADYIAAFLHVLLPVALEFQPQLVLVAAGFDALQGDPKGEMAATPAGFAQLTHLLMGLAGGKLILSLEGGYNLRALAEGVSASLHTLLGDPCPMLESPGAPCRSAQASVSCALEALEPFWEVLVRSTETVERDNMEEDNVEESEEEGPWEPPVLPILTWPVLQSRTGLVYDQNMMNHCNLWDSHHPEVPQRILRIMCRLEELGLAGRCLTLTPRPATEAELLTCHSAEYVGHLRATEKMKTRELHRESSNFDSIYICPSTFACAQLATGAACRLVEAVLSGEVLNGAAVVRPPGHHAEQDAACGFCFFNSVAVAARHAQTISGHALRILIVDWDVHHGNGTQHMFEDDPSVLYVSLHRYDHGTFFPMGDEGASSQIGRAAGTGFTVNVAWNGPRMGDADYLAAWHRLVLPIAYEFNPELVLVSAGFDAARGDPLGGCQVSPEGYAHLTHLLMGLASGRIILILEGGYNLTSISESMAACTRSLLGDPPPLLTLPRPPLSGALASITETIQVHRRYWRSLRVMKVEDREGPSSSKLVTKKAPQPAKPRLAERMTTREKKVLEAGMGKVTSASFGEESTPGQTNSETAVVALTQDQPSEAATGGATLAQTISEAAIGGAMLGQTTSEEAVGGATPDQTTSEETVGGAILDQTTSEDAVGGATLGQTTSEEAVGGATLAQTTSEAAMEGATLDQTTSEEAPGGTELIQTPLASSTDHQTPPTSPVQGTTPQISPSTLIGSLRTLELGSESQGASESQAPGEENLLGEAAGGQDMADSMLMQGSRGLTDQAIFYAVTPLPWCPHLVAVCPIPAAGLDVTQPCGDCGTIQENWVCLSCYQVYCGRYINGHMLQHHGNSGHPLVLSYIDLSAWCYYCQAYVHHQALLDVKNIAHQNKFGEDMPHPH

[2] = target: T2, HDAC8 (Homo sapiens, UniProt Q9BY41); test: HDAC enzyme activity assay (fluorogenic, Boc-Lys(trifluoroacetyl)-AMC), HDAC8; format: biochemical; settings: class I HDAC8; mean ± SD, triplicate
T2 construct: codon-optimized full-length HDAC8; made in house; host or cells: E. coli BL21(DE3), pET14b vector
T2 sequence (Q9BY41 1-377): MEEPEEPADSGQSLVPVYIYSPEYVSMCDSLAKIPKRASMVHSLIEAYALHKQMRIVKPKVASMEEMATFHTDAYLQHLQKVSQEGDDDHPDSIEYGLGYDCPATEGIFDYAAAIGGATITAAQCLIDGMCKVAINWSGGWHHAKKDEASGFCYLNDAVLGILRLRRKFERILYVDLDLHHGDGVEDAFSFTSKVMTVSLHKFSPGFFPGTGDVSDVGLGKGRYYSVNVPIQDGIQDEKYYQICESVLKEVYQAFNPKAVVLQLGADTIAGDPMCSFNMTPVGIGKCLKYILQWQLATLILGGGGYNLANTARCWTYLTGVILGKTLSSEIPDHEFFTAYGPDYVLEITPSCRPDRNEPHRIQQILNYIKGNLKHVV

[3] = test system: MCF7; test: MTT cell proliferation assay, MCF7; format: cell-based, human; settings: MTT, 72 h, mean ± SD, triplicate, read-out: IC50 ± SD MCF7
[4] = test system: B16; test: MTT cell proliferation assay, B16; format: cell-based, murine; settings: Mus musculus, B16; MTT, 72 h; mean ± SD, triplicate; read-out: IC50 ± SD B16

Cc1ccc(-n2c(SCc3ccc(C(=O)NO)cc3)nc3ccccc3c2=O)cc1 [Compound 5c, N-hydroxy-4-(((4-oxo-3-(p-tolyl)-3,4-dihydroquinazolin-2-yl)thio)methyl)benzamide]
IC50 [1]: 0.58 ± 0.05 µM
IC50 [2]: 2.3 ± 0.5 µM
IC50 ([3]; Homo sapiens, MCF7, 72 h): 13.7 µM
IC50 [3]: 13.7 ± 0.83 µM
IC50 [4]: 15 ± 3.34 µM
